# Reference: ChEMBL document CHEMBL1201862, “PubChem BioAssay data set” (2004)
# The source made the active and inactive calls.
# What was measured:
# [1] = molecular target: Aryl hydrocarbon receptor (Homo sapiens, UniProt P35869); test: Luminescence-based cell-based high throughput dose response assay for activators of the Aryl Hydrocarbon Receptor (AHR). [Related pubchem assays: 2796 (Primary screen (AHR activators in singlicate)), 2845 (Confirmation screen (AHR activators in triplicate)), 434939 (Counterscreen (PXR activators in triplicate)), 2804 (Summary (AHR activators))]; type: ADME
# [2] = Fluorescence Cell-Based Dose Response to Identify Inhibitors of Thrombin Receptor-Activating Peptide SFLLRN-Mediated P-Selectin Induction on Platelets. [Related pubchem assays: 1663 (Primary HTS), 1889 (retest at dose ), 1891 (counterscreen), 1678 (Project Summary)]; type: functional
# [3] = Luminescence Cell-Based Dose Confirmation HTS to Identify Inhibitors of Platelet Dense Granule Release. [Related pubchem assays: 1663 (Primary HTS), 1678 (Summary of Project)]; type: functional
# [4] = PAR1 agonist-induced platelet activation inhibition – cell-based, fluorescence, flow cytometry, human platelets, dose response (AID 2511); type: functional
# [5] = molecular target: Luciferin 4-monooxygenase (Photinus pyralis, UniProt P08659); test: inhibition of purified Photinus pyralis luciferase – biochemical, luminescence, dose response (AID 1891)
# [6] = M. tuberculosis growth inhibition, HTS (AID 449762); type: functional
# [7] = molecular target: T1, Protein RecA (Mycobacterium tuberculosis, UniProt P9WHJ3); test: Fluorescence Cell-Free Homogeneous Dose Retest to Identify Inhibitors of RecA-Intein Splicing Activity. [Related pubchem assays (depositor defined):AID2097, AID2223, AID489010, AID492950]; type: functional
# T1 sequence (P9WHJ3 whole entry): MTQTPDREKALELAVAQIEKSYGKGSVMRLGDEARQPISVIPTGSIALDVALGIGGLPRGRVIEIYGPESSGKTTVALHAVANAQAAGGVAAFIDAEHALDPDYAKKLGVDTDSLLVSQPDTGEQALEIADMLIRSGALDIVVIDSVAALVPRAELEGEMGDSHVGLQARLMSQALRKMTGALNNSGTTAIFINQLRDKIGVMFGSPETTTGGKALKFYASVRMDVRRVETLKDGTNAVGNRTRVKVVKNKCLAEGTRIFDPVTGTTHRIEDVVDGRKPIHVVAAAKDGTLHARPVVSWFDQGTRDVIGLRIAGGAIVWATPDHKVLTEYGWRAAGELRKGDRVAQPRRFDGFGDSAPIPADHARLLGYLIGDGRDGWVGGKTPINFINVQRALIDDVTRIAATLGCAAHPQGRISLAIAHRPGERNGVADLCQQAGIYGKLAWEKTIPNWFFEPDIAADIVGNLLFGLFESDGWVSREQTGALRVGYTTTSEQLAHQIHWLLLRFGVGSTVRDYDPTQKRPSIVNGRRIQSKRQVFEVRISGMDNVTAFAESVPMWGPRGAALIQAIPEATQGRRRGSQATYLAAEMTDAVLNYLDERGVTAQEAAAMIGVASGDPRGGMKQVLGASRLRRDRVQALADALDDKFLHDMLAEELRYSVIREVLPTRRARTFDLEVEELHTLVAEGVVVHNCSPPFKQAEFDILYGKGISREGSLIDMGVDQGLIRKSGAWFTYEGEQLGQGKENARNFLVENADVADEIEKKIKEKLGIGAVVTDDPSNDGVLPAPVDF
# [8] = molecular target: T2, Replicative DNA helicase DnaB (Mycobacterium tuberculosis, UniProt P9WMR3); test: DnaB intein splicing inhibitors, dose response, biochemical, cell-free fluorescence (AID 449749); type: functional
# T2 sequence (P9WMR3 whole entry): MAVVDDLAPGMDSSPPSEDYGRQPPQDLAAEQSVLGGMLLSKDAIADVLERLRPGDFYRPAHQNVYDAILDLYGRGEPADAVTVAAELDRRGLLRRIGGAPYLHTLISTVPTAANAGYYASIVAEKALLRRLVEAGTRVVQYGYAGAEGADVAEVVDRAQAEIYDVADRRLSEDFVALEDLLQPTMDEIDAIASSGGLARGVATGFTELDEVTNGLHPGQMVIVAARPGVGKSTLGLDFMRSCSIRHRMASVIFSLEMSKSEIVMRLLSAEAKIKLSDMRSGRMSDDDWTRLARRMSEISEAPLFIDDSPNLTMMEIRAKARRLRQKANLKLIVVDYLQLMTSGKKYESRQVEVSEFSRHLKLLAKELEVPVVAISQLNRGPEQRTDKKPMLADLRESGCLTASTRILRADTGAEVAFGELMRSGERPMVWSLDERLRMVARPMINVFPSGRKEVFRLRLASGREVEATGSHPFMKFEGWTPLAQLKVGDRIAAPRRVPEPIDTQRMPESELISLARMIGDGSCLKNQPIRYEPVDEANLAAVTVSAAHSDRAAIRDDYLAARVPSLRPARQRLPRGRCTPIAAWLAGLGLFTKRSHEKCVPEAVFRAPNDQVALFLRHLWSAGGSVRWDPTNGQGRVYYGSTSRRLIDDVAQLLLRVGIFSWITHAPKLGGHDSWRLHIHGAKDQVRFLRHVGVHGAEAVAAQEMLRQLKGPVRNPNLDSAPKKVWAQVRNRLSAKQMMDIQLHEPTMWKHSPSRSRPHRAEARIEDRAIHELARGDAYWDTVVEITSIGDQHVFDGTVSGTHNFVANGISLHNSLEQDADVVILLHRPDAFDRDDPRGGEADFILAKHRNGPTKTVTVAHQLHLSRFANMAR
# [9] = molecular target: Induced myeloid leukemia cell differentiation protein Mcl-1 (Homo sapiens, UniProt Q07820); test: blockers of MCL1 binding to BIM peptide – biochemical, fluorescence polarization, BIM-BH3 peptide, 1536-well, dose response (AID 2217)
# [10] = molecular target: Bcl-2-like protein 1 (Homo sapiens, UniProt Q07817); test: blockers of BCLXL peptide binding – biochemical, fluorescence polarization, 1536-well, selectivity assay for MCL1 inhibitor project, dose response (AID 2218)
# [11] = molecular target: T3, Mannose-6-phosphate isomerase (Homo sapiens, UniProt P34949); test: MPI inhibition at elevated mannose 6-phosphate – biochemical, fluorescence intensity, high mannose 6-phosphate, primary screen (AID 1220)
# T3 sequence (P34949 whole entry): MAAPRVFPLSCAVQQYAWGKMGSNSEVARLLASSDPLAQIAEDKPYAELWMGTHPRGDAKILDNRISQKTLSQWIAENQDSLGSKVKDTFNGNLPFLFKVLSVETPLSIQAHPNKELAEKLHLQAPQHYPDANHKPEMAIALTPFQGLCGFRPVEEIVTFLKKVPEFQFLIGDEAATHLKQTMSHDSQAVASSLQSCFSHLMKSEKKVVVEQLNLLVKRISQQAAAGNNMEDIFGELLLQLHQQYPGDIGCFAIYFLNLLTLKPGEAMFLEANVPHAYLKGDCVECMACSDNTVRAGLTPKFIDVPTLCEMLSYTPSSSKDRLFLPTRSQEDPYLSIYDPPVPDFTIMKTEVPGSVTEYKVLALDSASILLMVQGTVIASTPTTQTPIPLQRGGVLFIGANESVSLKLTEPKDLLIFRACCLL
# [12] = molecular target: Ubiquitin carboxyl-terminal hydrolase BAP1 (Homo sapiens, UniProt Q92560); test: inhibition of BAP1 ubiquitin hydrolase activity – biochemical, dose response (AID 714); type: functional
# [13] = molecular target: NADPH oxidase 1 (Homo sapiens, UniProt Q9Y5S8); test: Luminescence-based cell-based dose response assay to identify inhibitors of NADPH oxidase 1 (NOX1).; type: functional
# [14] = molecular target: Cytochrome P450 2C19 (Homo sapiens, UniProt P33261); test: qHTS Assay for Inhibitors and Substrates of Cytochrome P450 2C19. [Related pubchem assays: 410 ]; type: ADME; settings: read-out: Potency
# [15] = molecular target: Cytochrome P450 3A4 (Homo sapiens, UniProt P08684); settings: Potency;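 also: confirmatory qHTS run detecting inhibitors and substrates of CYP3A4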
# [16] = molecular target: T4, Zinc finger protein mex-5 (Caenorhabditis elegans, UniProt Q9XUB2); test: potency of MEX-5 RNA-binding blockers – biochemical, C. elegans, fluorescence polarization, dose response (AID 1960)
# T4 sequence (Q9XUB2 whole entry): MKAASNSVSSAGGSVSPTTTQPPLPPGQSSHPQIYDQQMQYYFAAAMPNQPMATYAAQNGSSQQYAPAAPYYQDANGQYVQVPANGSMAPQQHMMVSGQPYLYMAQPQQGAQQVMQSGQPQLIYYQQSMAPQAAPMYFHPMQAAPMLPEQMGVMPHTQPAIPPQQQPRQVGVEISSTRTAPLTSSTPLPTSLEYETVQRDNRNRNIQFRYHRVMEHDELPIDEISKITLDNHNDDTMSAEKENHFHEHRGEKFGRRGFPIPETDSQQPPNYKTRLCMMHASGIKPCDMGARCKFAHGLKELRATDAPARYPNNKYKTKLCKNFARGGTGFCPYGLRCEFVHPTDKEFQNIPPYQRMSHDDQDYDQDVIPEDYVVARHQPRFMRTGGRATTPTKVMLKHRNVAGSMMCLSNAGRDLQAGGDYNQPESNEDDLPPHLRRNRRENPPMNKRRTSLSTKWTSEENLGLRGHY
# [17] = molecular target: T5, RNA-binding protein pos-1 (Caenorhabditis elegans, UniProt G5EF15); test: disruptors of C. elegans POS-1 RNA interaction – biochemical, fluorescence polarization, dose response (AID 1964);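 also: purified POS-1 fused to maltose binding protein made in E. coli; potency of compounds blocking POS-1 binding to fluorescent RNA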
# T5 sequence (G5EF15 whole entry): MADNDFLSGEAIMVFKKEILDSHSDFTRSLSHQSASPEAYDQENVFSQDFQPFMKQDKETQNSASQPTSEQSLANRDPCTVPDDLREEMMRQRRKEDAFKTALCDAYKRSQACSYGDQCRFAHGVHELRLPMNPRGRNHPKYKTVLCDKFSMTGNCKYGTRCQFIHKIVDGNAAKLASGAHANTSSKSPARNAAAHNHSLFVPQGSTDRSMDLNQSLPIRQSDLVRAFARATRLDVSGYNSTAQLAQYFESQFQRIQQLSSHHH
# [18] = molecular target: T3, Mannose-6-phosphate isomerase; test: MPI enzyme activity inhibition – biochemical, fluorescence intensity, coupled assay, primary screen (AID 1209)
# [19] = molecular target: T6, Voltage-gated N-type calcium channel alpha-1B subunit/Amyloid beta A4 precursor protein-binding family A member 1 (Homo sapiens, UniProt Q00975+Q02410); type: protein assay
# [20] = molecular target: T6, Voltage-gated N-type calcium channel alpha-1B subunit/Amyloid beta A4 precursor protein-binding family A member 1; type: protein assay; remark: listed apart in the source
# [21] = molecular target: Ephrin type-A receptor 4 (Mus musculus, UniProt Q03137); test: EphA4 ligand-binding antagonists – biochemical, colorimetric, mouse EphA4, primary screen (AID 689); type: functional
# [22] = molecular target: T7, Bcl-2-related protein A1 (Mus musculus, UniProt Q07440); test: Bfl-1 binding inhibitors, SAR follow-up, biochemical, fluorescence polarization (AID 1070)
# T7 sequence (Q07440 whole entry): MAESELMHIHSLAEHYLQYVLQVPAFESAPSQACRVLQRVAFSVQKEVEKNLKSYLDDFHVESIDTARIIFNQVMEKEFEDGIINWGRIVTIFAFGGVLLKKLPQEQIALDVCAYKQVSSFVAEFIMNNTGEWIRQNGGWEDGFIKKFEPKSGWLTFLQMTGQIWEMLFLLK
# [23] = molecular target: T7, Bcl-2-related protein A1; test: small-molecule antagonists of Bfl-1/BH3 interaction – biochemical, TR-FRET, mouse Bfl-1, confirmation (AID 621);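 also: TR-FRET binding of GST-Bfl-1 to FITC-labelled Bid peptide via terbium antibody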
# [24] = molecular target: Glyceraldehyde-3-phosphate dehydrogenase (Homo sapiens, UniProt P04406)
# [25] = molecular target: Protein-tyrosine kinase 2-beta (Homo sapiens, UniProt Q14289);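 also: potency of inhibitors of PYK2 kinase phosphorylation of poly-GT substrate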
# [26] = molecular target: T8, Carboxy-terminal domain RNA polymerase II polypeptide A small phosphatase 1 (Homo sapiens, UniProt Q9GZU7); test: CTDSP1 inhibitors, concentration-response, biochemical, absorbance readout, ultra-high-throughput screen actives (AID 540297); type: functional
# T8 sequence (Q9GZU7 whole entry): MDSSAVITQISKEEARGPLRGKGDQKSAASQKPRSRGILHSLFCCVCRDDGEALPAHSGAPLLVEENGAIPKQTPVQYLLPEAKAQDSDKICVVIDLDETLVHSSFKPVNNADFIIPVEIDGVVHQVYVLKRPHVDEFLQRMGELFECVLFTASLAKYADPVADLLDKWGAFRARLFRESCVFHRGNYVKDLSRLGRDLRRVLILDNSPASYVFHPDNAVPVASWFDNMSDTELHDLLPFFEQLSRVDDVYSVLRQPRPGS
# [27] = molecular target: Arf-GAP with SH3 domain, ANK repeat and PH domain-containing protein 1 (Homo sapiens, UniProt Q9ULH1); type: functional;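 also: biochemical fluorescence polarization dose–response screen measuring inhibition of ASAP1; ASAP1 GAP domain stimulating GTP hydrolysis by truncated human ARF1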
# T6 sequence (Q00975 whole entry): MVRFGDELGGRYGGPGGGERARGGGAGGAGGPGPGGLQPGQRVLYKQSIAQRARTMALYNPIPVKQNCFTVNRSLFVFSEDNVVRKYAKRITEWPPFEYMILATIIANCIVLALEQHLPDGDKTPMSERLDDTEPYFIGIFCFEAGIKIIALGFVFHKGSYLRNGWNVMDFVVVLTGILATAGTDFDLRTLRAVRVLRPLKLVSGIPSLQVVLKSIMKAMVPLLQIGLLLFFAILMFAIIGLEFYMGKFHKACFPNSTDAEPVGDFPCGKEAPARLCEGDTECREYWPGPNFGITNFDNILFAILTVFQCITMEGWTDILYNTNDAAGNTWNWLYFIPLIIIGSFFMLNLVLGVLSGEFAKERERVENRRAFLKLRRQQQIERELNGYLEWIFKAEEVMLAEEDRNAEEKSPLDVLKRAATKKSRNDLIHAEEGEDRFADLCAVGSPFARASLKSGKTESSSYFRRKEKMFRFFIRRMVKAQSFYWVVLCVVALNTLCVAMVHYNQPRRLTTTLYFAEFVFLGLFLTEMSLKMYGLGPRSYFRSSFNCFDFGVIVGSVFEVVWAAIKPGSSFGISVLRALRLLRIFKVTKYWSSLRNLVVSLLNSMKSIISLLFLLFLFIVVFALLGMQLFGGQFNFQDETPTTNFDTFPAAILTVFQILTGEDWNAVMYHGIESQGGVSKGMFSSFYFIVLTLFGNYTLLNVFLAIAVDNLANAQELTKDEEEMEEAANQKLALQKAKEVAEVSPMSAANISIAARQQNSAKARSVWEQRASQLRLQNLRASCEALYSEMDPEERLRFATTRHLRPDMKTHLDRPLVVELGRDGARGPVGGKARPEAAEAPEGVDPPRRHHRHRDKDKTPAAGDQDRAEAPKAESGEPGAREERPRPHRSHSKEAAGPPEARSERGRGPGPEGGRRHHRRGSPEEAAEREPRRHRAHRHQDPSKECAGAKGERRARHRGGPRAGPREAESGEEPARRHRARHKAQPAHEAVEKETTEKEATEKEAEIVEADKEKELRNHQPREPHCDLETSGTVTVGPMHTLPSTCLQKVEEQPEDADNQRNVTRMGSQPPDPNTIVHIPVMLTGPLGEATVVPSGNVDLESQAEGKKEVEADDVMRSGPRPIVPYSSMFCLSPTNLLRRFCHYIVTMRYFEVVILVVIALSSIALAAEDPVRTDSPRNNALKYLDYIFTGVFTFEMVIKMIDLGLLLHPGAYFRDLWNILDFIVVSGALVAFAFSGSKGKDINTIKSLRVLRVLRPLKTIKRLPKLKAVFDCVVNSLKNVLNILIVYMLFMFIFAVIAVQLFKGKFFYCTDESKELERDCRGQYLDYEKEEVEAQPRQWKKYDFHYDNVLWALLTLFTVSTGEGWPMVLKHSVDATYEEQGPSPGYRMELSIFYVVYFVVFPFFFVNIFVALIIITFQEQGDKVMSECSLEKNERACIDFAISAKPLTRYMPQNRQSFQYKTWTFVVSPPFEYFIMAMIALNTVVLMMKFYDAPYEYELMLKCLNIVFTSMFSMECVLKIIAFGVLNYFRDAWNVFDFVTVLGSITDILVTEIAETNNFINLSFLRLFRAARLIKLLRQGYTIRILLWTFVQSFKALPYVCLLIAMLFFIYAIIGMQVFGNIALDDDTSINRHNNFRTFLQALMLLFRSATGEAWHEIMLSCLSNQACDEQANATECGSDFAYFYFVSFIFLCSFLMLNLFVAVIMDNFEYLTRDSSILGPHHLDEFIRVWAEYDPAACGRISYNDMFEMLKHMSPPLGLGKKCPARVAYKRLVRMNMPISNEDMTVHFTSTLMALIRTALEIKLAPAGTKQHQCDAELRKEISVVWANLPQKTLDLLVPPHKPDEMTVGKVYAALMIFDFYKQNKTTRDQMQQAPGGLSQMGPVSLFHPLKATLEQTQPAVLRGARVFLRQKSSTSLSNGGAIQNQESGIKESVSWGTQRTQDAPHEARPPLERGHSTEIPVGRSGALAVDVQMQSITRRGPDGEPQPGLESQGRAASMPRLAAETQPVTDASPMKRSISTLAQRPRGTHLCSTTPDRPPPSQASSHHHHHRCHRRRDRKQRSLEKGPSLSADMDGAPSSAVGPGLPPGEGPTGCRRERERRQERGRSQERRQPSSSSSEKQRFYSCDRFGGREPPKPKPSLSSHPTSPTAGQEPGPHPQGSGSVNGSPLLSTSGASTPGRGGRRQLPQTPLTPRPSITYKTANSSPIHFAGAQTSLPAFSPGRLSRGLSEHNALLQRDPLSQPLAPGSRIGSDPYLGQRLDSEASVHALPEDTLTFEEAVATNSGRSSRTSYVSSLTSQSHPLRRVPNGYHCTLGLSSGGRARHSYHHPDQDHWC
# T6 sequence (Q02410 whole entry): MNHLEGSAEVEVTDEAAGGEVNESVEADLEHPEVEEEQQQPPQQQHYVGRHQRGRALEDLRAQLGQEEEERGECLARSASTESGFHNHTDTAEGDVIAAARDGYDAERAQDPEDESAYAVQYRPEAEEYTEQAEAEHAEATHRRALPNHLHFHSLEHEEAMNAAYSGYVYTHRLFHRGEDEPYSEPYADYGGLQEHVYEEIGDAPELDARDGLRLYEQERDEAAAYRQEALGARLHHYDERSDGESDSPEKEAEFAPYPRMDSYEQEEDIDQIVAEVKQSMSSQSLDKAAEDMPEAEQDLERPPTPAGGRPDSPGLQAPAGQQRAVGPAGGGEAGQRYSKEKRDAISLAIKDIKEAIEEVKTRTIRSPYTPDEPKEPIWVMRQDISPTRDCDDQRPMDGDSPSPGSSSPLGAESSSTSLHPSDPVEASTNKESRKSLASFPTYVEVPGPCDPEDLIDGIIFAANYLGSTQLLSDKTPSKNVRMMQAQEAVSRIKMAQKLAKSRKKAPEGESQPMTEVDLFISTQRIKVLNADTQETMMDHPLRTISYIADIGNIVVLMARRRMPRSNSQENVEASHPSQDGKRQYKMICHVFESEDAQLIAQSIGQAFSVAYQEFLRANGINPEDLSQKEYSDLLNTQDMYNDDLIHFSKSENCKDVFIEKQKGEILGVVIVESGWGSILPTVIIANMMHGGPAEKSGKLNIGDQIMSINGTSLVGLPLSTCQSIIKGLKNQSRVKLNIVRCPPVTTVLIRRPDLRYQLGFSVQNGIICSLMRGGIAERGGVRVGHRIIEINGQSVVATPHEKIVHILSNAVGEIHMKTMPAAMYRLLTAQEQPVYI
# Sequence of Aryl hydrocarbon receptor (P35869 whole entry): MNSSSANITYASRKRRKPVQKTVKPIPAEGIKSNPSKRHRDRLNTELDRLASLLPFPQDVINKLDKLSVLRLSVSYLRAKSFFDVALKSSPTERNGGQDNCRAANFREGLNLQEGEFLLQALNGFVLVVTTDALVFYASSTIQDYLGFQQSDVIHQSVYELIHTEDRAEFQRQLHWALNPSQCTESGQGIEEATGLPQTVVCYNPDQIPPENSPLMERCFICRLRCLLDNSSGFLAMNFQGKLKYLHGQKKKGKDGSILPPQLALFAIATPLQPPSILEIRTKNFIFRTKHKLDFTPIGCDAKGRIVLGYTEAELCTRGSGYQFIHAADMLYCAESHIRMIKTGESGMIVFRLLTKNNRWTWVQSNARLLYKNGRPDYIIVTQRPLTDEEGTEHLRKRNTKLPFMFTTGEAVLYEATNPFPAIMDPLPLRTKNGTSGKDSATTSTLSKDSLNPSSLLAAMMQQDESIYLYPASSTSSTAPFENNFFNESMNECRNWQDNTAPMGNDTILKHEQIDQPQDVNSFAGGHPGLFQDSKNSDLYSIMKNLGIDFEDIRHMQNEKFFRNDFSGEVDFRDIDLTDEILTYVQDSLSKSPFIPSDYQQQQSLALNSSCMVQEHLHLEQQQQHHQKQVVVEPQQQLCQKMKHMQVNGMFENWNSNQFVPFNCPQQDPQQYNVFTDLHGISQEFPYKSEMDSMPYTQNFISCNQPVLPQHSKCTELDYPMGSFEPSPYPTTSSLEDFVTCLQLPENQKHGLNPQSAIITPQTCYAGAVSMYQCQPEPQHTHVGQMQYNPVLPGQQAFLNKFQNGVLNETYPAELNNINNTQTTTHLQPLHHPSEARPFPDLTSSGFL
# Sequence of Glyceraldehyde-3-phosphate dehydrogenase (P04406 whole entry): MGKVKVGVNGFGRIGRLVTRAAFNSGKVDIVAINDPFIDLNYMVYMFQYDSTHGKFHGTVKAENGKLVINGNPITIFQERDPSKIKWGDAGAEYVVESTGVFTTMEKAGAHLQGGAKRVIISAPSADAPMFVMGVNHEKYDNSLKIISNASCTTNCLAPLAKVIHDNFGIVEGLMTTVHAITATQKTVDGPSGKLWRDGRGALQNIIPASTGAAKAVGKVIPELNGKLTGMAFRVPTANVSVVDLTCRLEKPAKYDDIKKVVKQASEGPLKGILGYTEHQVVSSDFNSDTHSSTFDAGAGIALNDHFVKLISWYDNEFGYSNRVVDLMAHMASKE
# Sequence of Cytochrome P450 3A4 (P08684 whole entry): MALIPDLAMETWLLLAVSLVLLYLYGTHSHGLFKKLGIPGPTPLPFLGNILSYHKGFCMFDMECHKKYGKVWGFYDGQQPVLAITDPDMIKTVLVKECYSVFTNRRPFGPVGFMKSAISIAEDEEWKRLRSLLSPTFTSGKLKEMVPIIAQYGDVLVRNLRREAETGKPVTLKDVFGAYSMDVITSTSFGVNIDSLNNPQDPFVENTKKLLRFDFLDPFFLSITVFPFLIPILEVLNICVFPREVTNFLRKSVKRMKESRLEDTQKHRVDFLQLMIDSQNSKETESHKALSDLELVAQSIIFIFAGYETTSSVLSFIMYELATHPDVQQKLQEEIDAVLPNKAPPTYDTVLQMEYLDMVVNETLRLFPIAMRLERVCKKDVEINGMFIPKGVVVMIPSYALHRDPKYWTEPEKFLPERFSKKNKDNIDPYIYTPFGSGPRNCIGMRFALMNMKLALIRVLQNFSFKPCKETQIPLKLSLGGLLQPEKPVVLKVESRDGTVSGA
# Sequence of Bcl-2-like protein 1 (Q07817 whole entry): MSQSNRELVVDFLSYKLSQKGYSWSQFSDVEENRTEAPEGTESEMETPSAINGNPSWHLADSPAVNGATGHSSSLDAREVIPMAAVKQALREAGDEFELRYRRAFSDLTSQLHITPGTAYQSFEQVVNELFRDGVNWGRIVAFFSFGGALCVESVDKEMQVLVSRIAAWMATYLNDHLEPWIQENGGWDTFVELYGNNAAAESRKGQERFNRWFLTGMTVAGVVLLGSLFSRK
smiles,measurement,setting,value
COc1ccc(NC(=O)c2ccc(C)cc2)c(OC)c1,EC50,[1],3.78 µM (active)
O=C(Nc1cccc(NC(=O)c2ccccc2Cl)c1)c1ccco1,EC50,[2],< 1 µM (active)
same,EC50,[3],5.86 µM (active)
same,EC50,[4],< 0.3 µM (active)
same,EC50,[5],> 112 µM (not active)
CN(C(=O)COC(=O)/C=C/c1ccc(Cl)c(Cl)c1)c1c(N)n(Cc2ccccc2)c(=O)[nH]c1=O,IC50,[6],> 100 µM (active)
CC(=O)OCCCNc1cc(SCc2ccco2)c2nonc2c1[N+](=O)[O-],EC50,[7],3.49 µM (active)
same,AC50,[8],4.6 µM (active)
same,IC50,[9],> 36.3 µM (not active)
same,IC50,[10],> 109 µM (not active)
COc1ccc(C(=O)CNc2ccc3ccccc3c2)cc1,IC50,[11],> 50 µM (not active)
N#Cc1c(NC(=O)CCN2C(=O)c3ccccc3C2=O)oc(-c2ccccc2)c1-c1ccccc1,IC50,[12],> 50 µM (not active)
CC(=O)N1c2ccccc2Sc2ccccc21,IC50,[13],4.57 µM (active)
C=C/C1=C/Cc2ccccc2C(C[N+](=O)[O-])C(C(=O)OC)(C(=O)OC)C1 (centres undefined),AC50,[14],7.94 µM (inconclusive)
same,AC50,[15],3.16 µM (inconclusive)
NC1=CC(=O)c2cccc3cccc1c23,EC50,[16],1.98 µM (inconclusive)
same,EC50,[17],7.46 µM (inconclusive)
same,IC50,[18],16.7 µM (active)
same,IC50,[19],> 50 µM (inactive)
same,IC50,[20],12.7 µM (active)
COc1ccc(C(=O)CN2CCOCC2)cc1F,IC50,[21],> 100 µM (not active)
COC(=O)c1cc(C)nc(S(C)(=O)=O)n1,IC50,[22],> 100 µM (not active)
same,IC50,[23],> 100 µM (not active)
same,IC50,[24],> 100 µM (not active)
O=C(N/N=C/C=C/c1ccc([N+](=O)[O-])cc1)c1cccs1,IC50,[25],6.61 µM (active)
same,EC50,[16],53.6 µM (active)
same,EC50,[17],> 300 µM (not active)
same,IC50,[26],4.28 µM (active)
same,IC50,[27],20.7 µM (inactive)
